In the NIST ThermoML archive (doi:10.1021/je050200w):

Key:
[1] = xn = mol fraction of the nth substance listed; details: 101 kPa, Liquid
[2] = 101 kPa, Liquid

CCCCCCCCCCCO [1-undecanol] + CCCCCCCCCO
[1]
Details | mass density, 293.15 K [kg/m3] | mass density, 298.15 K [kg/m3] | mass density, 303.15 K [kg/m3] | mass density, 308.15 K [kg/m3] | mass density, 313.15 K [kg/m3] | viscosity, 293.15 K [mPa·s] | viscosity, 298.15 K [mPa·s] | viscosity, 303.15 K [mPa·s] | viscosity, 308.15 K [mPa·s] | viscosity, 313.15 K [mPa·s]
x2 = 0 | 832.2 | 828.8 | 825.4 | 821.7 | 818.6 | 17.28 | 13.72 | 11.52 | 9.35 | 7.841
x2 = 0.1002 | 831.7 | 828.3 | 824.9 | 821.5 | 818.1 | 16.58 | 13.43 | 11.15 | 9.247 | 7.609
x2 = 0.1996 | 831.3 | 827.9 | 824.5 | 821.1 | 817.7 | 16.08 | 12.83 | 10.73 | 8.926 | 7.373
x2 = 0.3004 | 830.9 | 827.5 | 824.1 | 820.7 | 817.3 | 15.38 | 12.55 | 10.37 | 8.681 | 7.298
x2 = 0.4001 | 830.6 | 827.2 | 823.8 | 820.3 | 816.9 | 14.91 | 11.98 | 9.973 | 8.333 | 7.04
x2 = 0.5 | 830.2 | 826.8 | 823.4 | 819.9 | 816.5 | 14.29 | 11.52 | 9.577 | 8.014 | 6.872
x2 = 0.6002 | 829.8 | 826.4 | 823 | 819.5 | 816.1 | 13.61 | 11.32 | 9.2 | 7.71 | 6.627
x2 = 0.6994 | 830.1 | 826.6 | 823.2 | 819.7 | 816.3 | 12.84 | 10.55 | 8.746 | 7.333 | 6.267
x2 = 0.7995 | 829.1 | 825.6 | 822.2 | 818.8 | 815.3 | 12.68 | 10.35 | 8.272 | 7.133 | 6.138
x2 = 0.8988 | – | – | – | 818.1 | – | – | – | – | 6.897 | –
x2 = 0.8997 | 828.4 | 825 | 821.5 | – | 814.6 | 12.13 | 9.929 | 8.195 | – | 5.93

CCCCCCCCO [octan-1-ol]
[2]
Details | mass density [kg/m3] | viscosity [mPa·s]
283.15 K | 832.1 | 13.49
288.15 K | 828.6 | 10.87
293.15 K | 825.2 | 8.944
298.15 K | 821.9 | 7.498
303.15 K | 818.4 | 6.273
308.15 K | 815 | 5.342
313.15 K | 811.4 | 4.54

CCCCCCCCO [octan-1-ol] + CCCCCCCCCCO
[1], x1 = 1
Details | mass density [kg/m3] | viscosity [mPa·s]
283.15 K | 832.1 | 13.49
288.15 K | 828.6 | 10.87
293.15 K | 825.2 | 8.944
298.15 K | 821.9 | 7.498
303.15 K | 818.4 | 6.273
308.15 K | 815 | 5.342
313.15 K | 811.4 | 4.54

CCCCCCCCCCCO [1-undecanol]
[2]
Details | mass density [kg/m3] | viscosity [mPa·s]
293.15 K | 832.2 | 17.28
298.15 K | 828.8 | 13.72
303.15 K | 825.4 | 11.52
308.15 K | 821.7 | 9.35
313.15 K | 818.6 | 7.841

CCCCCCCCCCO [decan-1-ol] + CCCCCCCCCO
[1], x2 = 0
Details | mass density [kg/m3] | viscosity [mPa·s]
283.15 K | 836.6 | 22.06
288.15 K | 833.3 | 17.99
293.15 K | 829.9 | 14.39
298.15 K | 826.5 | 11.74
303.15 K | 823 | 9.561
308.15 K | 819.6 | 8
313.15 K | 816.3 | 6.831

CCCCCCCCCCCO [1-undecanol] + CCCCCCCCO
[1]
Details | mass density, 293.15 K [kg/m3] | mass density, 298.15 K [kg/m3] | mass density, 303.15 K [kg/m3] | mass density, 308.15 K [kg/m3] | mass density, 313.15 K [kg/m3] | viscosity, 293.15 K [mPa·s] | viscosity, 298.15 K [mPa·s] | viscosity, 303.15 K [mPa·s] | viscosity, 308.15 K [mPa·s] | viscosity, 313.15 K [mPa·s]
x2 = 0 | 832.2 | 828.8 | 825.4 | 821.7 | 818.6 | 17.28 | 13.72 | 11.52 | 9.35 | 7.841
x2 = 0.1003 | 831.5 | 828.1 | 824.8 | 821.3 | 817.8 | 16.4 | 13.35 | 10.95 | 9.118 | 7.665
x2 = 0.2001 | 831 | 827.6 | 824.2 | 820.7 | 817.3 | 15.21 | 12.54 | 10.36 | 8.645 | 7.35
x2 = 0.2998 | 830.5 | 827 | 823.6 | 820.2 | 816.8 | 14.4 | 11.97 | 9.808 | 8.207 | 6.995
x2 = 0.4001 | – | – | 822.9 | – | – | – | – | 9.281 | – | –
x2 = 0.4002 | 829.7 | 826.3 | – | 819.5 | 816 | 13.8 | 11.23 | – | 7.773 | 6.652
x2 = 0.4999 | 829 | 825.6 | 822.2 | 818.8 | 815.3 | 12.78 | 10.64 | 8.745 | 7.392 | 6.336
x2 = 0.5998 | 828.3 | 824.9 | 821.5 | 818.1 | 814.6 | 12.19 | 9.948 | 8.252 | 6.989 | 5.991
x2 = 0.6998 | 827.7 | 824.3 | 820.8 | 817.4 | 813.9 | 10.95 | 9.276 | 7.691 | 6.49 | 5.615
x2 = 0.8 | 826.9 | 823.5 | 820.1 | 816.6 | 813.1 | 10.24 | 8.693 | 7.271 | 6.137 | 5.295
x2 = 0.8999 | 826.2 | 822.8 | 819.3 | 815.8 | 812.3 | 9.416 | 8.002 | 6.723 | 5.728 | 4.957

CCCCCCCCO [octan-1-ol] + CCCCCCCCCCCO
[1], x1 = 1
Details | mass density [kg/m3] | viscosity [mPa·s]
293.15 K | 825.2 | 8.944
298.15 K | 821.9 | 7.498
303.15 K | 818.4 | 6.273
308.15 K | 815 | 5.342
313.15 K | 811.4 | 4.54

CCCCCCCCCCO [decan-1-ol]
[2]
Details | mass density [kg/m3] | viscosity [mPa·s]
283.15 K | 836.6 | 22.06
288.15 K | 833.3 | 17.99
293.15 K | 829.9 | 14.39
298.15 K | 826.5 | 11.74
303.15 K | 823 | 9.561
308.15 K | 819.6 | 8
313.15 K | 816.3 | 6.831

CCCCCCCCCO [nonan-1-ol] + CCCCCCCCCCCO
[1], x1 = 1
Details | mass density [kg/m3] | viscosity [mPa·s]
293.15 K | 828.1 | 11.63
298.15 K | 824.7 | 9.519
303.15 K | 821.3 | 7.806
308.15 K | 817.8 | 6.604
313.15 K | 814.3 | 5.668

CCCCCCCCO [octan-1-ol] + CCCCCCCCCO
[1], x1 = 1
Details | mass density [kg/m3] | viscosity [mPa·s]
283.15 K | 832.1 | 13.49
288.15 K | 828.6 | 10.87
293.15 K | 825.2 | 8.944
298.15 K | 821.9 | 7.498
303.15 K | 818.4 | 6.273
308.15 K | 815 | 5.342
313.15 K | 811.4 | 4.54

CCCCCCCCCO [nonan-1-ol]
[2]
Details | mass density [kg/m3] | viscosity [mPa·s]
283.15 K | 835 | 17.44
288.15 K | 831.5 | 14.27
293.15 K | 828.1 | 11.63
298.15 K | 824.7 | 9.519
303.15 K | 821.3 | 7.806
308.15 K | 817.8 | 6.604
313.15 K | 814.3 | 5.668

CCCCCCCCCCO [decan-1-ol] + CCCCCCCCCCCO
[1], x1 = 1
Details | mass density [kg/m3] | viscosity [mPa·s]
293.15 K | 829.9 | 14.39
298.15 K | 826.5 | 11.74
303.15 K | 823 | 9.561
308.15 K | 819.6 | 8
313.15 K | 816.3 | 6.831

CCCCCCCCCCCO [1-undecanol] + CCCCCCCCCCO
[1]
Details | mass density, 293.15 K [kg/m3] | mass density, 298.15 K [kg/m3] | mass density, 303.15 K [kg/m3] | mass density, 308.15 K [kg/m3] | mass density, 313.15 K [kg/m3] | viscosity, 293.15 K [mPa·s] | viscosity, 298.15 K [mPa·s] | viscosity, 303.15 K [mPa·s] | viscosity, 308.15 K [mPa·s] | viscosity, 313.15 K [mPa·s]
x2 = 0 | 832.2 | 828.8 | 825.4 | 821.7 | 818.6 | 17.28 | 13.72 | 11.52 | 9.35 | 7.841
x2 = 0.1007 | 832 | 828.7 | 825.2 | 821.6 | 818.2 | 16.88 | 13.52 | 11.27 | 9.368 | 7.805
x2 = 0.1997 | 831.5 | 828.1 | 824.8 | 821.4 | 818 | 16.68 | 13.31 | 11.08 | 9.233 | 7.778
x2 = 0.2999 | 831.4 | 828 | 824.6 | 821.2 | 817.8 | 16.14 | 13.23 | 10.89 | 9.057 | 7.655
x2 = 0.3998 | 831.2 | 827.8 | 824.4 | 821 | 817.5 | 16.08 | 12.88 | 10.7 | 8.909 | 7.579
x2 = 0.4997 | 831 | 827.6 | 824.2 | 820.8 | 817.3 | 15.59 | 12.79 | 10.51 | 8.76 | 7.452
x2 = 0.5978 | 830.8 | 827.4 | 824 | 820.6 | 817.1 | 15.59 | 12.58 | 10.34 | 8.652 | 7.323
x2 = 0.6999 | 830.5 | 827.1 | 823.7 | 820.3 | 816.9 | 15.28 | 12.35 | 10.14 | 8.504 | 7.249
x2 = 0.7989 | 830.4 | 827 | 823.5 | 820.2 | 816.7 | 14.5 | 12.12 | 9.958 | 8.357 | 7.068
x2 = 0.8995 | 830.1 | 826.8 | 823.3 | 819.9 | 816.5 | 14.76 | 11.98 | 9.777 | 8.185 | 6.94
